Measurements published in patent US20250345436A1 (Hyloris Developments SA, priority 2023, published 2025).

Key:
physchem = type: physicochemical
Description: Atomoxetine HCl (API, active pharmaceutical ingredient) has good aqueous solubility. […] Human saliva has a pH normal range of 6.2-7.6 with 6.7 being the average pH. […] In the oral cavity, the pH is maintained near neutrality (6.7-7.3) by the saliva.
It is also evident that the solubilized form of atomoxetine is going to have a direct impact on taste buds thereby causing immediate bitterness upon drinking the oral solution.

[1] = cited from earlier work

## CNCC[C@@H](Oc1ccccc1C)c1ccccc1.Cl [Atomoxetine HCl, (-)-N-Methyl-3-phenyl-3-(o-tolyloxy)-propylamine hydrochloride]
physchem; aqueous buffer, Absolute Solubility
  solubility: 12.2 mg/mL
physchem; pH 4.5, aqueous buffer, Absolute Solubility
  solubility: 33.9 mg/mL
physchem; pH 6.8, aqueous buffer, Absolute Solubility
  solubility: 3.53 mg/mL
physchem; pH 6.8, aqueous buffer, solubility
  solubility: 2.7 to 3.5 mg/mL
physchem; pH 7.4, aqueous buffer, Absolute Solubility
  solubility: 2.75 mg/mL
physchem; simulated gastric fluid, Absolute Solubility
  solubility: 13.1 mg/mL
physchem; water, Absolute Solubility
  solubility: 24.1 mg/mL

## D-α-Tocopherol Polyethylene Glycol Succinate [Vitamin E TPGS]
[1]; in water above CMC
  size of self-assembled nanosized aggregates: about 13 nm
[1]; in water
  critical micellar concentration (CMC): 0.02 wt %
